Source: the supplement of paper PMC10307832

These cell lines were tested with CC(C)C[C@H](NC(=O)[C@H](CCc1ccccc1)NC(=O)CN1CCOCC1)C(=O)N[C@@H](Cc1ccccc1)C(=O)N[C@@H](CC(C)C)C(=O)[C@@]1(C)CO1 [Carfilzomib] + CC(=O)Nc1cccc(-n2c(=O)n(C3CC3)c(=O)c3c(Nc4ccc(I)cc4F)n(C)c(=O)c(C)c32)c1 [Trametinib] (partner 0.02 µM) (assay: relative viability (nuclei count vs DMSO), 5 days (fraction); higher = more cells survive). Conditions: first compound 0.1 µM.
Outline: (§1)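 Relative viability equals treated-well nuclei counts divided by vehicle-well nuclei counts. Counts came from 4× images of lung cancer cell lines grown in 1536-well plates for 5 days after pin-tool dosing on the day after seeding. Dosing used one drug alone or a fixed anchor-drug dose plus five library-drug doses (not always all listed) in √10 steps, and values are medians of duplicate plates.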

In order of falling relative viability:
1. LOU-NH91  0.33
2. UMC-11  0.322
3. NCI-H661  0.276
4. SK-MES-1  0.201
5. LK-2  0.2
6. SK-LU-1  0.185
7. NCI-H1792  0.174
8. NCI-H520  0.134
9. NCI-H2009  0.119
10. NCI-H2228  0.109
11. NCI-H1650  0.1
12. NCI-H2023  0.0795
13. SW 1573  0.0572

What follows are cell lines tested with C[C@@H](Oc1cc(-c2cnn(C3CCNCC3)c2)cnc1N)c1c(Cl)ccc(F)c1Cl [Crizotinib] + Cc1cc(Nc2cc(N3CCN(C)CC3)nc(Sc3ccc(NC(=O)C4CC4)cc3)n2)n[nH]1 [Tozasertib] (partner 0.1 µM) in the same assay as above. Conditions: first compound 0.01 µM.
Outline: as §1

In order of falling relative viability:
1. HCC-44  0.936
2. 201T  0.924
3. SK-MES-1  0.844
4. NCI-H2009  0.746
5. H3255  0.71
6. LOU-NH91  0.674
7. NCI-H520  0.47
8. BEN  0.452
9. HCC-827  0.427
10. LC-2-ad  0.425
11. HCC-15  0.408
12. NCI-H1650  0.407
13. HOP-62  0.396
14. EKVX  0.392
15. LCLC-103H  0.37
16. NCI-H2023  0.356
17. NCI-H1623  0.355
18. NCI-H661  0.336
19. CAL-12T  0.331
20. COR-L 105  0.331
21. EMC-BAC-2  0.326
22. SK-LU-1  0.287
23. ChaGo-K-1  0.24
24. NCI-H2228  0.237
25. COR-L23  0.21
26. EPLC-272H  0.204
27. LCLC-97TM1  0.19
28. UMC-11  0.185
29. SW 1573  0.178
30. LK-2  0.173
31. A-427  0.17
32. HCC-366  0.143
33. HARA  0.106

Same assay, conditions: first compound 0.03162 µM

In order of rising relative viability:
1. HARA  0.079
2. HCC-366  0.0981
3. LK-2  0.177
4. UMC-11  0.184
5. COR-L23  0.191
6. ABC-1  0.196
7. A-427  0.199
8. SW 1573  0.216
9. ChaGo-K-1  0.222
10. NCI-H2228  0.229
11. LCLC-97TM1  0.234
12. CAL-12T  0.254
13. EPLC-272H  0.26
14. EMC-BAC-2  0.281
15. NCI-H2023  0.284
16. HOP-62  0.33
17. NCI-H661  0.337
18. NCI-H1650  0.35
19. COR-L 105  0.361
20. SK-LU-1  0.373
21. HCC-15  0.377
22. LCLC-103H  0.39
23. EKVX  0.398
24. NCI-H1623  0.399
25. HCC-827  0.438
26. LC-2-ad  0.454
27. NCI-H520  0.469
28. HCC-78  0.47
29. BEN  0.55
30. H3255  0.637
31. LOU-NH91  0.69
32. NCI-H2009  0.712
33. SK-MES-1  0.905
34. 201T  0.947

Same assay, conditions: first compound 0.1 µM

In order of falling relative viability:
1. HCC-44  0.992
2. 201T  0.921
3. SK-MES-1  0.87
4. H3255  0.791
5. LOU-NH91  0.751
6. NCI-H2009  0.731
7. BEN  0.53
8. LCLC-103H  0.488
9. NCI-H520  0.448
10. NCI-H1650  0.433
11. LC-2-ad  0.431
12. EKVX  0.426
13. HCC-78  0.419
14. NCI-H1623  0.415
15. HCC-827  0.414
16. HCC-15  0.389
17. EPLC-272H  0.385
18. CAL-12T  0.384
19. COR-L 105  0.367
20. HOP-62  0.354
21. NCI-H661  0.337
22. SK-LU-1  0.328
23. EMC-BAC-2  0.304
24. NCI-H2023  0.293
25. ChaGo-K-1  0.222
26. COR-L23  0.22
27. A-427  0.215
28. LCLC-97TM1  0.21
29. LK-2  0.197
30. UMC-11  0.192
31. SW 1573  0.188
32. NCI-H2228  0.172
33. ABC-1  0.16
34. HCC-366  0.106
35. HARA  0.1

Same assay, conditions: first compound 0.3162 µM

In order of falling relative viability:
1. 201T  0.927
2. HCC-44  0.836
3. SK-MES-1  0.808
4. NCI-H2009  0.678
5. LOU-NH91  0.606
6. H3255  0.599
7. LCLC-103H  0.451
8. NCI-H520  0.45
9. LC-2-ad  0.423
10. BEN  0.414
11. HCC-827  0.413
12. NCI-H1623  0.395
13. HCC-78  0.391
14. NCI-H661  0.369
15. NCI-H1650  0.356
16. EKVX  0.349
17. SK-LU-1  0.334
18. COR-L 105  0.326
19. HOP-62  0.322
20. EMC-BAC-2  0.285
21. NCI-H2023  0.241
22. EPLC-272H  0.232
23. ChaGo-K-1  0.209
24. NCI-H2228  0.209
25. LCLC-97TM1  0.201
26. SW 1573  0.198
27. COR-L23  0.195
28. ABC-1  0.177

Same assay, conditions: first compound 1 µM

In order of falling relative viability:
1. 201T  0.978
2. BEN  0.446
3. EKVX  0.405
4. COR-L 105  0.344
5. EPLC-272H  0.306
6. CAL-12T  0.3
7. EMC-BAC-2  0.275
8. ChaGo-K-1  0.246
9. A-427  0.212
10. COR-L23  0.194
11. ABC-1  0.186
